From patent US20100267796A1, “THERAPEUTIC AGENT FOR IRRITABLE BOWEL SYNDROME” (KYOWA HAKKO KOGYO CO., LTD., priority 2006, published 2010)

Tested on: capsaicin-induced visceral pain
Assay: Action on capsaicin-induced visceral pain model
Type: in vivo, male ddY mice
Conditions: doses of 3 and 30 mg/kg p.o. 30 minutes before 0.1% capsaicin into the colon; mice, n=10; 60 minutes
Experimental: It has been reported that a visceral pain is induced by the administration of capsaicin into the colon [Pain, Vol. 92, No. 3, pp. 335-342 (2001)].
A suspension of Compound 1-1 was prepared with an agate mortar using 0.5 w/v % MC.
Capsaicin (Sigma-Aldrich) was dissolved in a physiological saline solution containing 10% ethanol (Kanto Chemical co., Ltd.) and 10% polyoxyethylene (20) sorbitan monooleate (Tween 80, Wako Pure Chemical Industries, Ltd.), and the resultant solution was used. A test compound was orally administered in a volume of 10 mL/kg, and MC was administered to a control group in the same volume.
Male ddY mice (Japan SLC, Inc.) with a body weight of 27 g to 29 g were purchased and used in an experiment. After inspection and acclimation for 2 days or more, the mice showing favorable increases in body weight and no obvious abnormality were used. […]
After the oral administration of Compound 1-1 or 0.5 w/v % MC, each mouse was housed in a cage and left therein. […] Then, each of the mice was placed in an acrylic cage (8 cm in length×8 cm in width×15 cm in height) and recorded with a video (Sony) for 1 hour. After the recording, the following 4 behaviors and symptoms were measured as indexes of capsaicin-induced visceral pain at an interval of 5 minutes. […]

C[C@](O)(C(=O)Nc1cccc2c1C(=O)c1sccc1CS2(=O)=O)C(F)(F)F [Compound 1-1]
numbers of pain-related behaviors: suppressed the pain-related behaviors
